The source of these data is patent US20130102595A1 (Curis, Inc., priority 2011, published 2013).

In one data set the test system is Calu6. As to the kind of experiment: Cell proliferation assay (CellTiter-Glo). Format: cell-based. The conditions noted are these: Homo sapiens, Calu-6; NSCLC; 72 hours, 0.5% fetal bovine serum; read-out: antiproliferative activity IC50, Calu6. In short, it runs like this: (§1)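 Cancer cells seeded at 5,000–10,000/well and exposed to a concentration range of compound for 72 h in 0.5% FBS. Growth inhibition read as ATP content by luciferase luminescence after 30 min lysis.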
Background: ATP-based viability assays read luminescence as a measure of living cells.

The test system of the next data set is SW1990. Nature of the data set: Cell proliferation assay (CellTiter-Glo). Format: cell-based. The conditions noted are these: Homo sapiens, Pancreas, 72 hours, 0.5% fetal bovine serum, read-out: antiproliferative activity IC50, SW1990. The procedure, abridged: as §1
For another data set, the system named is MiaPaca1. Nature of the data set: Cell proliferation assay (CellTiter-Glo). The data set is classed as cell-based. The conditions noted are these: Pancreas; 72 hours, 0.5% fetal bovine serum; read-out: antiproliferative activity IC50, MiaPaca1. The procedure, abridged: as §1
A further data set deals with CFPAC-1. Nature of the data set: Cell proliferation assay (CellTiter-Glo). The data set is classed as cell-based. As to conditions: Homo sapiens, Pancreas, 72 hours, 0.5% fetal bovine serum, read-out: antiproliferative activity IC50, CFPAC-1. The procedure, abridged: as §1
Another data set deals with PANC-1. As to the kind of experiment: Cell proliferation assay (CellTiter-Glo). The data set is classed as cell-based. As to conditions: Homo sapiens, Pancreas, 72 hours, 0.5% fetal bovine serum, read-out: antiproliferative activity IC50, PANC-1. In short, it runs like this:
as §1

The next data set deals with CaPan1. As to the kind of experiment: Cell proliferation assay (CellTiter-Glo). The data set is classed as cell-based. As to conditions: Homo sapiens, CAPAN-1; Pancreas; 72 hours, 0.5% fetal bovine serum; read-out: antiproliferative activity IC50, CaPan1. In short, it runs like this:
as §1

A further data set deals with CaPan2. Nature of the data set: Cell proliferation assay (CellTiter-Glo). Format: cell-based. The conditions noted are these: Homo sapiens, Capan-2; Pancreas; 72 hours, 0.5% fetal bovine serum; read-out: antiproliferative activity IC50, CaPan2. In short, it runs like this:
as §1

In another data set the test system is MDA-MB-231. Nature of the data set: Cell proliferation assay (CellTiter-Glo). The conditions noted are these: Homo sapiens, Breast, 72 hours, 0.5% fetal bovine serum, read-out: antiproliferative activity IC50, MDA-MB-231. Format: cell-based. In short, it runs like this:
as §1

For the next data set, the system named is WiDr. As to the kind of experiment: Cell proliferation assay (CellTiter-Glo). Format: cell-based. As to conditions: Homo sapiens, Colon, 72 hours, 0.5% fetal bovine serum, read-out: antiproliferative activity IC50, WiDr. In short, it runs like this:
as §1

Another data set deals with T1, PI3Kδ (p110δ/p85α) (Homo sapiens, UniProt O00329).
T1 construct: GST (N); made in house; host or cells: Baculovirus-infected Sf9 cells
T1 sequence (O00329 whole entry): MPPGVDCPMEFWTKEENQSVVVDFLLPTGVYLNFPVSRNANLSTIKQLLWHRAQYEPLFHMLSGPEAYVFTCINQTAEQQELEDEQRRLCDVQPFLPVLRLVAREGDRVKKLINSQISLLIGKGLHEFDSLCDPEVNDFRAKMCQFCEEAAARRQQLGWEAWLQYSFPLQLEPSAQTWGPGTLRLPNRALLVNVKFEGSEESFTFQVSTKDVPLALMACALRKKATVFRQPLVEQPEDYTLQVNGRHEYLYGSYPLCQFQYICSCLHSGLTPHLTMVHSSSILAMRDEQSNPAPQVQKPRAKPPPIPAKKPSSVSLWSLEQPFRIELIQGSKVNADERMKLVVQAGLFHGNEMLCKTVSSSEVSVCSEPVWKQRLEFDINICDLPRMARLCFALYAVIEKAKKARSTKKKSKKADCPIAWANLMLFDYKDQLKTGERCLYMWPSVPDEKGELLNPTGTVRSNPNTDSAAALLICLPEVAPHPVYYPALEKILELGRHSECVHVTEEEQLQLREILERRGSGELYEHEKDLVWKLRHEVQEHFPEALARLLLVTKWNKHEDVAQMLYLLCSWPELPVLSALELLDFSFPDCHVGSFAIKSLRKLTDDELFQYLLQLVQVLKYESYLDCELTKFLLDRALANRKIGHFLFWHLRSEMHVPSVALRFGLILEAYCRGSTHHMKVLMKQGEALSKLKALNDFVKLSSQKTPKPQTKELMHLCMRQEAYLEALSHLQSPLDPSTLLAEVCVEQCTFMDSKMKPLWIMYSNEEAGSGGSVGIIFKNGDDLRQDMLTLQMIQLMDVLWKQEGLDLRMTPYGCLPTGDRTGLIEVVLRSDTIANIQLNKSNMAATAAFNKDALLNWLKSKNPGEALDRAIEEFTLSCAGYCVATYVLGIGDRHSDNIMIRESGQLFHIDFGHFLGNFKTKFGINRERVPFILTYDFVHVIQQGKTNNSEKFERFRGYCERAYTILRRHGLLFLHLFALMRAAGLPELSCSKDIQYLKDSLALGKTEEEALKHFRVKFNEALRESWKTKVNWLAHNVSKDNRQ
T1 sequence (P27986 whole entry partner): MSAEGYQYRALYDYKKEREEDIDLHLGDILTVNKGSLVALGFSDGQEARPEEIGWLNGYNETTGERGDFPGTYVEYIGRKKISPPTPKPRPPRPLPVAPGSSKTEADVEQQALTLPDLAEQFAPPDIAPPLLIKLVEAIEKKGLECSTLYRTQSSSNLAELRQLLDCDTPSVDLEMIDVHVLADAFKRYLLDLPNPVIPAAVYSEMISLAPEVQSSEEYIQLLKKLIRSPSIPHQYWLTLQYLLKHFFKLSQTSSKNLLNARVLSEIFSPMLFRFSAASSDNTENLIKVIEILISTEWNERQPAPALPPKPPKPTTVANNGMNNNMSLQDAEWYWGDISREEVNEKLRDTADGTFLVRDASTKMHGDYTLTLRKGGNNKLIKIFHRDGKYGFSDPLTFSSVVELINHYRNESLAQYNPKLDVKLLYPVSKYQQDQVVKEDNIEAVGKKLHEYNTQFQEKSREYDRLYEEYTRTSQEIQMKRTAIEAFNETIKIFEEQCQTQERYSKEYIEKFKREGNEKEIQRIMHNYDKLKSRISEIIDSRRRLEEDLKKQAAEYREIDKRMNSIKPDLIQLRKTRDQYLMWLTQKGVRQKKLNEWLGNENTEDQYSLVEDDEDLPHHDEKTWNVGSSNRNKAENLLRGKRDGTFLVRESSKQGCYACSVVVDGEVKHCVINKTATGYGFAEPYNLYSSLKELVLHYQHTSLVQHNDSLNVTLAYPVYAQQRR
As to the kind of experiment: PI3Kδ ADP-Glo assay. As to conditions: 20 μM PIP2, 10 μM ATP, 90 minutes. The data set is classed as biochemical. How it is done:
(c) an In Vitro Assay which Determines the Ability of a Test Compound to Inhibit PI3Kδ.
(§2) Activity of PI3Kδ was measured using ADP-Glo assay from Promega. PI3Kδ, a complex of N-terminal GST-tagged recombinant full-length human p110δ (GenBank, Accession No. NM_005026) and untagged recombinant full length human p85α (GenBank Accession No. XM—043865) were co-expressed in a Baculovirus infected Sf9 cell expression system. The ADP-Glo assay was performed to measure the amount of ADP generated from ATP hydrolysis coupled with PIP2 phosphorylation by the purified recombinant PI3Kδ (p110δ/p85α). PI3Kδ was incubated with 20 μM PIP2 substrate in the reaction buffer (10 mM Tris-HCl, pH 7.5, 50 mM NaCl, 5 mM MgCl2, 10 μM ATP and 0.5% DMSO) for 90 minutes at room temperature. The ADP generated was then detected by ADP-Glo assay from Promega, a luminescent ADP detection assay. The ADP-Glo assay is performed in two steps; first, after the kinase reaction, ADP-Glo Reagent is added to terminate the kinase reaction and deplete the remaining ATP. Second, the Kinase Detection Reagent is added to simultaneously convert ADP to ATP and allow the newly synthesized ATP to be measured using a luciferase/luciferin reaction.
(In general: ADP-Glo first removes unused ATP, then detects ADP through luciferase.)

Data set [1] concerns the target T2, mTor serine/threonine protein kinase (Homo sapiens, UniProt P42345).
T2 construct: FLAG; made in house; host or cells: Baculovirus expression system in Sf21 cells
As to the kind of experiment: mTor kinase radioisotope assay. The data set is classed as biochemical. The conditions noted are these: 70 uM ATP, 40 minutes; read-out: m-TOR IC50. The procedure, abridged: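 FLAG-tagged full-length recombinant human mTor from baculovirus/Sf21, incubated with p70S6K C-terminal fragment (2 mg/ml) and 70 uM ATP plus 33P-ATP tracer in 50 mM HEPES pH 7.5, 3 mM MnCl2, 40 min at room temperature. Phosphoric acid stop, filtermat capture, scintillation counting; IC50 from sigmoidal dose-response fit.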

Data set [2] has as its system HDACs (HeLa cell nuclear extracts). As to the kind of experiment: HDAC enzymatic activity, Biomol Color de Lys system. The data set is classed as biochemical. The conditions noted are these: 1 hour, 25° C. The procedure, abridged: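 HeLa nuclear extract incubated with serially diluted compound and […] artificial substrate in 50 mM Tris/Cl pH 8.0, 137 mM NaCl, 2.7 mM KCl, 1 mM MgCl2. Run 1 h at 25 °C, stopped with developer. Fluorescence read (ex 350-380, em 440-460 nm); IC50 from sigmoidal dose-response fit.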

The next data set addresses T3, PI3Kα (p110α/p85α) (Homo sapiens, UniProt P42336).
T3 construct: GST (N); made in house; host or cells: Baculovirus-infected Sf9 cells
Nature of the data set: PI3Kα ADP-Glo assay. Format: biochemical. As to conditions: 20 μM PIP2, 10 μM ATP, 30 minutes. In short, it runs like this: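 Recombinant full-length human GST-p110α/His-p85α, co-expressed in Sf9 cells, was incubated 30 min at room temperature with 20 μM PIP2 and 10 μM ATP. The buffer was 50 mM HEPES pH 7.4, 150 mM NaCl, 5 mM MgCl2, 1 mM DTT, 3 µM orthovanadate and 0.5% DMSO. ADP formed was detected by ADP-Glo luminescence.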

The target in a further data set is T4, PI3Kγ (p120γ) (Homo sapiens, UniProt P48736).
T4 construct: His (N); made in house; host or cells: Baculovirus-infected Sf9 cells
T4 sequence (P48736 whole entry): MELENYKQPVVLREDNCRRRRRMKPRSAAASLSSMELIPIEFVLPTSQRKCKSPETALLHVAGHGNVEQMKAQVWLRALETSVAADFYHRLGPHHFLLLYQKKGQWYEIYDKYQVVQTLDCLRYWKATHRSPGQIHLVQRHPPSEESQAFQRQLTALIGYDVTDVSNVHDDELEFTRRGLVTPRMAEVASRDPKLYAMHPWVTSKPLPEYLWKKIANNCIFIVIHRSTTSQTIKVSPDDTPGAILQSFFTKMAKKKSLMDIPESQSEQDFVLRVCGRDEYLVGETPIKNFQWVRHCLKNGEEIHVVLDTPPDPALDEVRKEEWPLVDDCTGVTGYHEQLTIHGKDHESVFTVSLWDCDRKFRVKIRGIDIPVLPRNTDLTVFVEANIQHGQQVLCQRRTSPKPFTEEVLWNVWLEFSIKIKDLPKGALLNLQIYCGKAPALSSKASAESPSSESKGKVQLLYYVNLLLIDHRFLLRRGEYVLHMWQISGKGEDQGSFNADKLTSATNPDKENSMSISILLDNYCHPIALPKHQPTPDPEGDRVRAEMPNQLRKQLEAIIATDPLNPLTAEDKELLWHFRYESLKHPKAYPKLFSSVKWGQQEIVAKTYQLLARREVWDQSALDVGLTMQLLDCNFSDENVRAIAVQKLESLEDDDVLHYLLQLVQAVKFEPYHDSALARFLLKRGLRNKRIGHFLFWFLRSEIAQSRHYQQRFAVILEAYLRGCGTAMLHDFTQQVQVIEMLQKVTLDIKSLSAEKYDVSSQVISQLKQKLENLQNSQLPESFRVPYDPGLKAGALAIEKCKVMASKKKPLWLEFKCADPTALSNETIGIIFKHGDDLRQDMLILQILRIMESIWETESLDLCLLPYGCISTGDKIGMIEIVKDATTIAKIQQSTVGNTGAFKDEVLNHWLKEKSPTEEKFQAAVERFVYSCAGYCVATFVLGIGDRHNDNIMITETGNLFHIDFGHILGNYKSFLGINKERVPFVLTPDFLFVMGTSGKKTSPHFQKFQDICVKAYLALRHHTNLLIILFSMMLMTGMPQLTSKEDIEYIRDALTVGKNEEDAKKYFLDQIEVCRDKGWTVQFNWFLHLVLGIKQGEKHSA
Nature of the data set: PI3Kγ ADP-Glo assay. The data set is classed as biochemical. As to conditions: 20 μM PIP2, 10 μM ATP, 90 minutes. How it is done: (d) an In Vitro Assay which Determines the Ability of a Test Compound to Inhibit PI3Kγ.
Activity of PI3Kγ was measured using ADP-Glo assay from Promega. PI3Kγ, N-terminal His-tagged recombinant full-length human p120γ (GenBank, Accession No. AF327656) was expressed in a Baculovirus infected Sf9 cell expression system. The ADP-Glo assay was performed to measure the amount of ADP generated from ATP hydrolysis coupled with PIP2 phosphorylation by the purified recombinant PI3Kγ […]. PI3Kγ was incubated with 20 μM PIP2 substrate in the reaction buffer (10 mM Tris-HCl, pH 7.5, 50 mM NaCl, 5 mM MgCl2, 10 μM ATP and 0.5% DMSO) for 90 minutes at room temperature. The ADP generated was then detected by ADP-Glo assay from Promega, a luminescent ADP detection assay. The ADP-Glo assay is performed in two steps; first, after the kinase reaction, ADP-Glo Reagent is added to terminate the kinase reaction and deplete the remaining ATP. Second, the Kinase Detection Reagent is added to simultaneously convert ADP to ATP and allow the newly synthesized ATP to be measured using a luciferase/luciferin reaction.

The target in a further data set is T5, PI3Kβ (p110β/p85α) (Homo sapiens, UniProt P42338).
T5 construct: His (N); made in house; host or cells: Baculovirus-infected Sf9 cells
T5 sequence (P42338 whole entry): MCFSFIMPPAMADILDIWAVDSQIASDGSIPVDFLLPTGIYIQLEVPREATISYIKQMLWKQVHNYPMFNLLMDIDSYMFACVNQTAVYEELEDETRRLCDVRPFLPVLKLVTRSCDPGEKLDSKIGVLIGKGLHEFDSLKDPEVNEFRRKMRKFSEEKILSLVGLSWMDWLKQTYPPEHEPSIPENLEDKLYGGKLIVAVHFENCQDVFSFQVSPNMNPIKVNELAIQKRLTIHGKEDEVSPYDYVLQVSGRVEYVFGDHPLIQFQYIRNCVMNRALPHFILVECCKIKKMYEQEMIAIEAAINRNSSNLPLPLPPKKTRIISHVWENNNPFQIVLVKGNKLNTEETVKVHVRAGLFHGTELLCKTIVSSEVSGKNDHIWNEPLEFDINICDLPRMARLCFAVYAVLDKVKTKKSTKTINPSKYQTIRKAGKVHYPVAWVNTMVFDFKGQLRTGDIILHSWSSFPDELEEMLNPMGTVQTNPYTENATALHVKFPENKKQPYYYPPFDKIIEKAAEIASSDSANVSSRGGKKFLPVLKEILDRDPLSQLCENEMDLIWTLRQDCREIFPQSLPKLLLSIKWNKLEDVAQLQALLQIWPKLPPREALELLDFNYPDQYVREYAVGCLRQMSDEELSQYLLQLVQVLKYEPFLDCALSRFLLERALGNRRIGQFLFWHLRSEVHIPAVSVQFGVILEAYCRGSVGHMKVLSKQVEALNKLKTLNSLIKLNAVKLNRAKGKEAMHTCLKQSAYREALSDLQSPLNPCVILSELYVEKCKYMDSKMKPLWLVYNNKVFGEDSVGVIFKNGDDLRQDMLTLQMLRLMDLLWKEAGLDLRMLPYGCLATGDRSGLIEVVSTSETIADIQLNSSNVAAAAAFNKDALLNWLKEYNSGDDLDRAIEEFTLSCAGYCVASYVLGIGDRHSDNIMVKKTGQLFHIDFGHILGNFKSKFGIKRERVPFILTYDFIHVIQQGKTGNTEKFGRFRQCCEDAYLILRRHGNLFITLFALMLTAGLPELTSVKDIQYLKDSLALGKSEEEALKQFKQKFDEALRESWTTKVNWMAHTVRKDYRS
T5 sequence (P27986 whole entry partner): as the sequence (P27986 whole entry partner) above
Nature of the data set: PI3Kβ ADP-Glo assay. The data set is classed as biochemical. As to conditions: 20 μM PIP2, 10 μM ATP, 90 minutes. How it is done:
(B) an In Vitro Assay which Determines the Ability of a Test Compound to Inhibit PI3Kβ.
as §2, with “PI3Kβ” for “PI3Kδ”, “[…],” for “PI3Kδ,”, “His-tagged” for “GST-tagged”, “p110β” for “p110δ”, “NM_006219)” for “NM_005026)”, “PI3Kβ (p110β/p85α). PI3Kβ” for “PI3Kδ (p110δ/p85α). PI3Kδ”

The test system of the next data set is SWI-116. Nature of the data set: Cell proliferation assay (CellTiter-Glo). The data set is classed as cell-based. As to conditions: Colon; 72 hours, 0.5% fetal bovine serum; read-out: antiproliferative activity IC50, SWI-116. The procedure, abridged: as §1
A further data set has as its system OPM-2. As to the kind of experiment: Cell proliferation assay (CellTiter-Glo). As to conditions: Homo sapiens, Multiple Myeloma, 72 hours, 0.5% fetal bovine serum, read-out: antiproliferative activity IC50, OPM-2. The data set is classed as cell-based. In short, it runs like this: as §1

T3 sequence (P42336 whole entry): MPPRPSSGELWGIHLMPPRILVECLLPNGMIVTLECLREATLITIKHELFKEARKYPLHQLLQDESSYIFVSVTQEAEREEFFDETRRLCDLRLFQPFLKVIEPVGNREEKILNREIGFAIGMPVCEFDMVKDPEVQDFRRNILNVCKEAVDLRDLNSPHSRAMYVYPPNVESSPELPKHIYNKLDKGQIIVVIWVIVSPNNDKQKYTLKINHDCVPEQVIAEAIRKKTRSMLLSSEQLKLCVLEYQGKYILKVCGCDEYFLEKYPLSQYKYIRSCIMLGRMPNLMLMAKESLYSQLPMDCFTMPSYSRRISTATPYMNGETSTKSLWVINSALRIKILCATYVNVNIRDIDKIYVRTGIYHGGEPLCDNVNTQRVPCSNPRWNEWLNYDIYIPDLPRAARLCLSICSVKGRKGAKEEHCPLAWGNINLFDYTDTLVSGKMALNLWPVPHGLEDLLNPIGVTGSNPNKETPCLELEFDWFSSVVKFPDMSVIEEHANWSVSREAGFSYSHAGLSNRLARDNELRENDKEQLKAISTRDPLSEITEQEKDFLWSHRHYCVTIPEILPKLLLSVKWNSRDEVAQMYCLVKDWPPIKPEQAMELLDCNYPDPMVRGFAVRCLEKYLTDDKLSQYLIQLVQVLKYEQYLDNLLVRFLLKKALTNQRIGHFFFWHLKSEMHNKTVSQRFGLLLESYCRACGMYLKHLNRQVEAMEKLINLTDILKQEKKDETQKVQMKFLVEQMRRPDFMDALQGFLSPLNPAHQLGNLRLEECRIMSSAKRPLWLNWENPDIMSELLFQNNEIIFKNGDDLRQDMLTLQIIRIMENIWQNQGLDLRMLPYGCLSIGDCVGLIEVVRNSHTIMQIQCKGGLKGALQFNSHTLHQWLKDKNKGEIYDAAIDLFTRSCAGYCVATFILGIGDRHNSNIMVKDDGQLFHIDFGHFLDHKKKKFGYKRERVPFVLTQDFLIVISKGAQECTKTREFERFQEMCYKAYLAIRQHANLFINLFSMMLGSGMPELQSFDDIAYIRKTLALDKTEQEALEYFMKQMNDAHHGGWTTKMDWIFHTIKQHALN
T3 sequence (P27986 whole entry partner): as the sequence (P27986 whole entry partner) above

The term IC50 denotes the concentration needed to halve the response being measured. Turning to `Cn1c(=O)n(-c2ccc(C(C)(C)C#N)cc2)c2c3cc(-c4cnc5ccccc5c4)ccc3ncc21` [BEZ-235, 2-methyl-2-(4-(3-methyl-2-oxo-8-(quinolin-3-yl)-2,3-dihydro-1H-imidazo[4,5-c]quinolin-1-yl)phenyl)propanenitrile, reference compound], the half-maximal inhibitory concentration (IC50) in the data set with Calu6 was in the range of 100 to 1000 nM; in the data set on SW1990, 10 to 100 nM; in the data set on MiaPaca1, 1000 to 10000 nM; in the data set on CFPAC-1, 1000 to 10000 nM; in the data set with PANC-1, 1000 to 10000 nM; in the data set on CaPan1, 100 to 1000 nM. Besides, the IC50 in the data set with CaPan2 was 1000 to 10000 nM; in the data set with MDA-MB-231, over 10000 nM; in the data set with WiDr, 1000 to 10000 nM.

The term melting point denotes the temperature, or range, at which the solid turns liquid. On to `O=C(NO)c1cnc(N2CCN(Cc3cc4nc(-c5cccc6[nH]ncc56)nc(N5CCOCC5)c4s3)CC2)nc1` [Compound 14], for which the melting point fell in the range of 209 to 221 °C. At PI3Kδ (p110δ/p85α), this molecule had an IC50 of 100 to 1000 nM. Moreover, in [1], the 50% inhibitory concentration (IC50) lay in the range of 1000 to 10000 nM. The same molecule returned a concentration for half-maximal inhibition (IC50) in data set [2] of under 100 nM. The molecule further came in with an IC50 against PI3Kα (p110α/p85α) of under 100 nM. Moreover, at PI3Kγ (p120γ), the half-maximal inhibitory concentration (IC50) is under 100 nM. Besides, the 50% inhibitory concentration (IC50) on PI3Kβ (p110β/p85α) was under 100 nM.

With `O=C(NO)c1cnc(NCc2cc3nc(-c4cccc5[nH]ncc45)nc(N4CCOCC4)c3s2)nc1` [Compound 53, 2-((2-(1H-indazol-4-yl)-4-morpholinothieno[3,2-d]pyrimidin-6-yl)methylamino)-N-hydroxypyrimidine-5-carboxamide], the melting point lay in the range of 234 to 237 °C. The molecule also yielded an IC50 on PI3Kδ (p110δ/p85α) of under 100 nM. The molecule also came in with an IC50 in data set [2] of under 100 nM. The same molecule gave an IC50 against PI3Kα (p110α/p85α) of under 100 nM. For the same molecule, at PI3Kγ (p120γ), the IC50 was under 100 nM. At PI3Kβ (p110β/p85α), this molecule displayed an IC50 of under 100 nM.

Regarding `CC(c1cc2nc(-c3cccc4[nH]ncc34)nc(N3CCOCC3)c2s1)N(C)c1ncc(C(=O)NO)cn1` (stereo not shown) [Compound 70], the IC50 in [1] is 100 to 1000 nM; in [2], under 100 nM; against PI3Kα (p110α/p85α) it was under 100 nM; in the data set with SWI-116, 10 to 100 nM.

In turn, `CN(Cc1cc2nc(-c3cccc(CO)c3)nc(N3CCOCC3)c2s1)c1ncc(C(=O)NO)cn1` [Compound 138, N-hydroxy-2-(((2-(3-(hydroxymethyl)phenyl)-4-morpholinothieno[3,2-d]pyrimidin-6-yl)methyl)(methyl)amino)pyrimidine-5-carboxamide] registered a melting point of 160 to 164 °C. The half-maximal inhibitory concentration (IC50) in [1] is under 100 nM. Besides, the IC50 in data set [2] was under 100 nM. At PI3Kα (p110α/p85α), this molecule had a half-maximal inhibitory concentration (IC50) of under 100 nM. For the same molecule, the IC50 with Calu6 is 10 to 100 nM. The IC50 in the data set with SW1990 is 10 to 100 nM. Moreover, the half-maximal inhibitory concentration (IC50) with OPM-2 is under 10 nM. Also, the IC50 in the data set with MiaPaca1 lay within 10 to 100 nM. In addition, the IC50 in the data set with CFPAC-1 lay within 10 to 100 nM. In the data set on PANC-1, the IC50 is 10 to 100 nM. In addition, in the data set with CaPan1, the IC50 lay in the range of 10 to 100 nM. In addition, in the data set with CaPan2, the half-maximal inhibitory concentration (IC50) lay within 10 to 100 nM. In addition, the 50% inhibitory concentration (IC50) in the data set with MDA-MB-231 is 10 to 100 nM. Also, in the data set on WiDr, the IC50 was 10 to 100 nM.
